In the kinase profiling compilation of Christmann-Franck et al. (2016):

Tests used:
Experiment in all cases: KINOMEscan competition binding
Conditions in all cases: compound 10.0 µM
[1] = system: ABL1 (human), P00519 [M351T]
[2] = molecular target: ACVR1B (human) (UniProt P36896)
[3] = molecular target: AKT1 (human) (UniProt P31749)
[4] = molecular target: BLK (human) (UniProt P51451)
[5] = molecular target: BMPR2 (human) (UniProt Q13873)
[6] = molecular target: BRSK1 (human) (UniProt Q8TDC3)
[7] = molecular target: CDC2L2 (human) (UniProt Q9UQ88)
[8] = molecular target: CHEK2 (human) (UniProt O96017)
[9] = molecular target: DCLK1 (human) (UniProt O15075)
[10] = molecular target: EPHA2 (human) (UniProt P29317)
[11] = molecular target: EPHA8 (human) (UniProt P29322)
[12] = molecular target: EPHB3 (human) (UniProt P54753)
[13] = molecular target: FGR (human) (UniProt P09769)
[14] = molecular target: FLT4 (human) (UniProt P35916)
[15] = molecular target: FYN (human) (UniProt P06241)
[16] = molecular target: HCK (human) (UniProt P08631)
[17] = molecular target: INSRR (human) (UniProt P14616)
[18] = molecular target: IRAK3 (human) (UniProt Q9Y616)
[19] = molecular target: MAP3K9 (human) (UniProt P80192)
[20] = molecular target: MAPK11 (human) (UniProt Q15759)
[21] = molecular target: MAPK14 (human) (UniProt Q16539)
[22] = molecular target: MLTK (human) (UniProt Q9NYL2)
[23] = molecular target: MST1R (human) (UniProt Q04912)
[24] = molecular target: MYLK2 (human) (UniProt Q9H1R3)
[25] = molecular target: NTRK2 (human) (UniProt Q16620)
[26] = molecular target: PAK6 (human) (UniProt Q9NQU5)
[27] = molecular target: PDPK1 (human) (UniProt O15530)
[28] = molecular target: PIK3CD (human) (UniProt O00329)
[29] = molecular target: PLK3 (human) (UniProt Q9H4B4)
[30] = molecular target: PRKD2 (human) (UniProt Q9BZL6)
[31] = molecular target: PRKG2 (human) (UniProt Q13237)
[32] = molecular target: PTK2 (human) (UniProt Q05397)
[33] = molecular target: PTK6 (human) (UniProt Q13882)
[34] = system: RET (human), P07949 [V804M]
[35] = molecular target: ROS1 (human) (UniProt P08922)
[36] = molecular target: RPS6KA4 KD1 (human) (UniProt O75676)
[37] = molecular target: SRMS (human) (UniProt Q9H3Y6)
[38] = molecular target: STK25 (human) (UniProt O00506)
[39] = molecular target: STK3 (human) (UniProt Q13188)
[40] = molecular target: STK32C (human) (UniProt Q86UX6)
[41] = molecular target: STK35 (human) (UniProt Q8TDR2)
[42] = molecular target: STK38L (human) (UniProt Q9Y2H1)
[43] = molecular target: TESK1 (human) (UniProt Q15569)

BLK (human), sequence (P51451 whole entry, looked up): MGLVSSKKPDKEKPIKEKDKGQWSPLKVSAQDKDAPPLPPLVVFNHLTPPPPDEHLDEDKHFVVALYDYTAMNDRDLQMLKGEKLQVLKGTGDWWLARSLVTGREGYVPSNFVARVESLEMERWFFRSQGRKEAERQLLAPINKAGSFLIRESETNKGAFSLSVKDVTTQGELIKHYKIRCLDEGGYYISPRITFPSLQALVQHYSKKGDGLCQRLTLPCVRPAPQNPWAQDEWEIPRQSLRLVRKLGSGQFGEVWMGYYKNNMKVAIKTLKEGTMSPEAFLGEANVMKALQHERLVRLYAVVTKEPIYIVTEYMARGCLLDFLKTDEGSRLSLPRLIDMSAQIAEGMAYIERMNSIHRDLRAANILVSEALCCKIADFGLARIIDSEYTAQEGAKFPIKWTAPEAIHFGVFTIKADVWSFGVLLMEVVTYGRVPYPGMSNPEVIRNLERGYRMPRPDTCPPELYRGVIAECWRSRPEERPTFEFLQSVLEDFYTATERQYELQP
MYLK2 (human), sequence (Q9H1R3 whole entry, looked up): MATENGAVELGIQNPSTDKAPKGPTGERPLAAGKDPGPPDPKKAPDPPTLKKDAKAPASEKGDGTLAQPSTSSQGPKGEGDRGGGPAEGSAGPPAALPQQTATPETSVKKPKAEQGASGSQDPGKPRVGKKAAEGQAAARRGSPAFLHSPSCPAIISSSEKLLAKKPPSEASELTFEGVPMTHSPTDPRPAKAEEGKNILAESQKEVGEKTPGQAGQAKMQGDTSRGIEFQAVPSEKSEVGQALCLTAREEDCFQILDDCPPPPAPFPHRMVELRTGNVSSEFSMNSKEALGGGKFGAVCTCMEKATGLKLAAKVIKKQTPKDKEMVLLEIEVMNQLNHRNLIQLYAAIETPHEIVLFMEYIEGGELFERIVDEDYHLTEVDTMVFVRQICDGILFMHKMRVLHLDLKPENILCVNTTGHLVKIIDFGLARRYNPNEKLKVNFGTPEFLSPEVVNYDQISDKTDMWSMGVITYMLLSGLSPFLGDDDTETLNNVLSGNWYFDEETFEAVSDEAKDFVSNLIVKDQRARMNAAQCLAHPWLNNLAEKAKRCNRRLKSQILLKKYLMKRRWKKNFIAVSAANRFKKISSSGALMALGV
PAK6 (human), sequence (Q9NQU5 whole entry, looked up): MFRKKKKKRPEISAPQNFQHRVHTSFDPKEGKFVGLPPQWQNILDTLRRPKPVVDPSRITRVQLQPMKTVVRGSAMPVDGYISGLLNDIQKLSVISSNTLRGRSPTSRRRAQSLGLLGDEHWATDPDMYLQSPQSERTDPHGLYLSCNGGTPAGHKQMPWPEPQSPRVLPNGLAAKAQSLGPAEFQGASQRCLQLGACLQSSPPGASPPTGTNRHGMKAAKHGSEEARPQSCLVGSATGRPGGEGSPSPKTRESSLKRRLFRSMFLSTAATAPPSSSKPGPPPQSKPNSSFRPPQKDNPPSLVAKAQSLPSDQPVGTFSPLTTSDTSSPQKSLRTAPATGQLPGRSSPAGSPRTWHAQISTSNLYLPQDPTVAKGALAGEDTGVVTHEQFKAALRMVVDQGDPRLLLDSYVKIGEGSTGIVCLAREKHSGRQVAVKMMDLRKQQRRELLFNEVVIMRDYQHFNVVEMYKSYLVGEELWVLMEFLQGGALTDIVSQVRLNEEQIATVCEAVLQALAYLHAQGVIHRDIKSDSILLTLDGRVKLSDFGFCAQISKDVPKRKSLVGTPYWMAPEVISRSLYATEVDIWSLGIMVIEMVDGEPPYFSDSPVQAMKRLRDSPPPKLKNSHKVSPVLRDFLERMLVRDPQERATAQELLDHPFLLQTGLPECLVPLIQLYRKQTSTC
STK38L (human), sequence (Q9Y2H1 whole entry, looked up): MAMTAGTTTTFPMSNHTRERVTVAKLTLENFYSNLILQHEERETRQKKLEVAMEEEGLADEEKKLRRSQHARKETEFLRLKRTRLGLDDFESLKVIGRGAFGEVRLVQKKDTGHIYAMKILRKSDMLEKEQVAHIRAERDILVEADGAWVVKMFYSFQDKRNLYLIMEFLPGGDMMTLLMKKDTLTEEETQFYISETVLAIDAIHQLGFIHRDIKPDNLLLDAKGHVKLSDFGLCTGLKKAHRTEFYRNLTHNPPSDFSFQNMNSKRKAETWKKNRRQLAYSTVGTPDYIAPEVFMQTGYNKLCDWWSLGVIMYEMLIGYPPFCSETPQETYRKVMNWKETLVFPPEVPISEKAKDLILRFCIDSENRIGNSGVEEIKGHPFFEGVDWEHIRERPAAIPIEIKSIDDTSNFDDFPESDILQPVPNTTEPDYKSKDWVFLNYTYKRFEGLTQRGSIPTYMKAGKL
FGR (human), sequence (P09769 whole entry, looked up): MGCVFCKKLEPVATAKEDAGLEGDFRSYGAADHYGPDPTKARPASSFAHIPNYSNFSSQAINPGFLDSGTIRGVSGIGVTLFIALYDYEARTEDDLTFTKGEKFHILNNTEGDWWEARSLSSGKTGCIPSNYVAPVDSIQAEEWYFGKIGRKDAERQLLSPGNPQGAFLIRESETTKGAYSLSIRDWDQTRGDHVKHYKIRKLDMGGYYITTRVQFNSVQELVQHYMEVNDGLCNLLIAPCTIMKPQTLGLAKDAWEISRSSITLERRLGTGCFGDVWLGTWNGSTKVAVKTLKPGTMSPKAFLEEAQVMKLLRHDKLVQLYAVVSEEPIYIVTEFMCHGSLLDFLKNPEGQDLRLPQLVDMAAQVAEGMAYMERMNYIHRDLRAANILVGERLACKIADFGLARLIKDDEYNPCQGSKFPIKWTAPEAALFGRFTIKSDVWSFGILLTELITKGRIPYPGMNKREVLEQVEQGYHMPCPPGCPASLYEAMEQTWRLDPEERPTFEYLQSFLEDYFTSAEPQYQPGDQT
FYN (human), sequence (P06241 whole entry, looked up): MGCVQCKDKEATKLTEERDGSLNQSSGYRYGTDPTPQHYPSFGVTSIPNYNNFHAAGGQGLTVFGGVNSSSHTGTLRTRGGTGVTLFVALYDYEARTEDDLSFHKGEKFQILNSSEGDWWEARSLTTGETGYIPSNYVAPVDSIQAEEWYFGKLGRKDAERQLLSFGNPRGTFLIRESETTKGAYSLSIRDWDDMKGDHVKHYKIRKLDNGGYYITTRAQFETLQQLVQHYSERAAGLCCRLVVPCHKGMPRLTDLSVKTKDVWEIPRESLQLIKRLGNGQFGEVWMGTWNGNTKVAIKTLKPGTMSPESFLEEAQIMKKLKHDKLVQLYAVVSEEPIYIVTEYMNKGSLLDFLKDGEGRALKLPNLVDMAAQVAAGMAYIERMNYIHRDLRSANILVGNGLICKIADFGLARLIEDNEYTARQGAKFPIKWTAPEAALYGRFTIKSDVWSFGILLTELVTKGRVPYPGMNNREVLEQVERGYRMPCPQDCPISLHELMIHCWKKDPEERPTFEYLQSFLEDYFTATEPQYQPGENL
PRKG2 (human), sequence (Q13237 whole entry, looked up): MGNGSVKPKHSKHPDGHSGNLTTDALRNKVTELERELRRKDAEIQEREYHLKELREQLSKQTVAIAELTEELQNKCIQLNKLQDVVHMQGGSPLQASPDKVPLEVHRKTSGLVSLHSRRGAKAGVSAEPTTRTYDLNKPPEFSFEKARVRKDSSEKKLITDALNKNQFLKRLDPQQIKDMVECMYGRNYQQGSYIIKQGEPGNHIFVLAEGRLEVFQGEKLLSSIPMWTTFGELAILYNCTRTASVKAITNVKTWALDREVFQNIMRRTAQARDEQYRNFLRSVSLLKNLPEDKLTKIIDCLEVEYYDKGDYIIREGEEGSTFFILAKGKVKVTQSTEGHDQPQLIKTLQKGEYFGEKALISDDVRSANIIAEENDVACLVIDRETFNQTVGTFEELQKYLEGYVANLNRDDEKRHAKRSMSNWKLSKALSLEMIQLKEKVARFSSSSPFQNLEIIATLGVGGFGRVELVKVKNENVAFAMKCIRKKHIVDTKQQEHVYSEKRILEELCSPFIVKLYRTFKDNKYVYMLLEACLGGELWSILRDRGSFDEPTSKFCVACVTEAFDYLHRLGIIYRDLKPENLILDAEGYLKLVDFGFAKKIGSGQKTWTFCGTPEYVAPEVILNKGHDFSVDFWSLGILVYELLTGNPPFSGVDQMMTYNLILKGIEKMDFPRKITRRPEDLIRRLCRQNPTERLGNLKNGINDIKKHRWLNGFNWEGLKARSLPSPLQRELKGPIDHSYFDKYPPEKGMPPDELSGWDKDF
IRAK3 (human), sequence (Q9Y616 whole entry, looked up): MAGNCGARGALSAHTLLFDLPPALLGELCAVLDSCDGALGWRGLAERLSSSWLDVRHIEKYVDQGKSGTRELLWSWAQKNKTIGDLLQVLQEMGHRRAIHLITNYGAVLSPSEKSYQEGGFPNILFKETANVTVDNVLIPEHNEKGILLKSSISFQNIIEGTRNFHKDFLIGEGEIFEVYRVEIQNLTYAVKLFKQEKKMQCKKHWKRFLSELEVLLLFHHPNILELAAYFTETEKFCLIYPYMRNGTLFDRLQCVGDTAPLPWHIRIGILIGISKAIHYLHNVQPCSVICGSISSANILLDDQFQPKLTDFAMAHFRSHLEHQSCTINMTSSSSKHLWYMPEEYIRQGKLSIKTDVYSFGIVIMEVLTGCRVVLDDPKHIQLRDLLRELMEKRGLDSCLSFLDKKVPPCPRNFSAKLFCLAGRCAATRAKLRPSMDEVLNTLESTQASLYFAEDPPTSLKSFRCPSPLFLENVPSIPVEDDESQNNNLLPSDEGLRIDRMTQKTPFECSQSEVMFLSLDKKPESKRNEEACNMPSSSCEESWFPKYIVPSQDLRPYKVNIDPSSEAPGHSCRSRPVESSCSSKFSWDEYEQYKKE

COc1cc(N2CCN(C)CC2)ccc1Nc1ncc2c(n1)Nc1ccccc1NC2=O
kinase still bound, per cent of control [1]: 15%
kinase still bound, per cent of control [2]: 100%
kinase still bound, per cent of control [3]: 100%
kinase still bound, per cent of control [4]: 49%
kinase still bound, per cent of control [5]: 100%
kinase still bound, per cent of control [6]: 91%
kinase still bound, per cent of control [7]: 100%
kinase still bound, per cent of control [8]: 84%
kinase still bound, per cent of control [9]: 59%
kinase still bound, per cent of control [10]: 100%
kinase still bound, per cent of control [11]: 80%
kinase still bound, per cent of control [12]: 93%
kinase still bound, per cent of control [13]: 73%
kinase still bound, per cent of control [14]: 10%
kinase still bound, per cent of control [15]: 98%
kinase still bound, per cent of control [16]: 63%
kinase still bound, per cent of control [17]: 41%
kinase still bound, per cent of control [18]: 79%
kinase still bound, per cent of control [19]: 82%
kinase still bound, per cent of control [20]: 100%
kinase still bound, per cent of control [21]: 100%
kinase still bound, per cent of control [22]: 100%
kinase still bound, per cent of control [23]: 100%
kinase still bound, per cent of control [24]: 69%
kinase still bound, per cent of control [25]: 2.4%
kinase still bound, per cent of control [26]: 100%
kinase still bound, per cent of control [27]: 82%
kinase still bound, per cent of control [28]: 100%
kinase still bound, per cent of control [29]: 83%
kinase still bound, per cent of control [30]: 100%
kinase still bound, per cent of control [31]: 100%
kinase still bound, per cent of control [32]: 73%
kinase still bound, per cent of control [33]: 82%
kinase still bound, per cent of control [34]: 100%
kinase still bound, per cent of control [35]: 82%
kinase still bound, per cent of control [36]: 100%
kinase still bound, per cent of control [37]: 0%
kinase still bound, per cent of control [38]: 84%
kinase still bound, per cent of control [39]: 100%
kinase still bound, per cent of control [40]: 100%
kinase still bound, per cent of control [41]: 100%
kinase still bound, per cent of control [42]: 100%
kinase still bound, per cent of control [43]: 100%

O=C1NC(=O)/C(=C/c2c[nH]c(=O)c(-c3ccc(N4CCNCC4)nc3)c2)S1
kinase still bound, per cent of control [1]: 49%
kinase still bound, per cent of control [2]: 80%
kinase still bound, per cent of control [3]: 100%
kinase still bound, per cent of control [4]: 100%
kinase still bound, per cent of control [5]: 19%
kinase still bound, per cent of control [6]: 100%
kinase still bound, per cent of control [7]: 95%
kinase still bound, per cent of control [8]: 70%
kinase still bound, per cent of control [9]: 73%
kinase still bound, per cent of control [10]: 100%
kinase still bound, per cent of control [11]: 76%
kinase still bound, per cent of control [12]: 91%
kinase still bound, per cent of control [13]: 84%
kinase still bound, per cent of control [14]: 90%
kinase still bound, per cent of control [15]: 92%
kinase still bound, per cent of control [16]: 100%
kinase still bound, per cent of control [17]: 86%
kinase still bound, per cent of control [18]: 100%
kinase still bound, per cent of control [19]: 94%
kinase still bound, per cent of control [20]: 82%
kinase still bound, per cent of control [21]: 100%
kinase still bound, per cent of control [22]: 92%
kinase still bound, per cent of control [23]: 93%
kinase still bound, per cent of control [24]: 14%
kinase still bound, per cent of control [25]: 86%
kinase still bound, per cent of control [26]: 17%
kinase still bound, per cent of control [27]: 100%
kinase still bound, per cent of control [28]: 0%
kinase still bound, per cent of control [29]: 85%
kinase still bound, per cent of control [30]: 8.3%
kinase still bound, per cent of control [31]: 100%
kinase still bound, per cent of control [32]: 79%
kinase still bound, per cent of control [33]: 83%
kinase still bound, per cent of control [34]: 88%
kinase still bound, per cent of control [35]: 100%
kinase still bound, per cent of control [36]: 100%
kinase still bound, per cent of control [37]: 86%
kinase still bound, per cent of control [38]: 77%
kinase still bound, per cent of control [39]: 90%
kinase still bound, per cent of control [40]: 100%
kinase still bound, per cent of control [41]: 79%
kinase still bound, per cent of control [42]: 92%
kinase still bound, per cent of control [43]: 100%
